Laboratory results taken from PubChem BioAssay (NCI).
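How tested: cells in 96-well plates exposed to compound for 48 hours at five concentrations. TGI: concentration producing complete growth inhibition.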

Experiments:
Test in all cases: DTP human tumour cell line panel, 48 h
HOP-62 NSCLC = tested on: HOP-62 NSCLC
HCT-116 colon = tested on: HCT-116 colon
DMS 273 small cell lung = tested on: DMS 273 small cell lung
HCT-15 colon = tested on: HCT-15 colon
U251 CNS = tested on: U251 CNS
ACHN renal = tested on: ACHN renal
SR leukemia = tested on: SR leukemia
IGROV1 ovarian = tested on: IGROV1 ovarian
UACC-62 melanoma = tested on: UACC-62 melanoma
A498 renal = tested on: A498 renal
SK-MEL-28 melanoma = tested on: SK-MEL-28 melanoma
MALME-3M melanoma = tested on: MALME-3M melanoma
NCI-H23 lung = tested on: NCI-H23 lung
DLD-1 colon = tested on: DLD-1 colon
K-562 leukemia = tested on: K-562 leukemia
NCI-H460 lung = tested on: NCI-H460 lung
SK-MEL-2 melanoma = tested on: SK-MEL-2 melanoma
A549 NSCLC = tested on: A549 NSCLC
NCI-H226 lung = tested on: NCI-H226 lung
SNB-78 CNS = tested on: SNB-78 CNS
M14 melanoma = tested on: M14 melanoma
OVCAR-5 ovarian = tested on: OVCAR-5 ovarian
KM12 colon = tested on: KM12 colon
SK-OV-3 ovarian = tested on: SK-OV-3 ovarian
SW-620 colon = tested on: SW-620 colon
OVCAR-4 ovarian = tested on: OVCAR-4 ovarian
LOX IMVI melanoma = tested on: LOX IMVI melanoma
SF-295 CNS = tested on: SF-295 CNS
HCC-2998 colon = tested on: HCC-2998 colon
COLO 205 colon = tested on: COLO 205 colon
KM20L2 colon = tested on: KM20L2 colon
TK-10 renal = tested on: TK-10 renal
SK-MEL-5 melanoma = tested on: SK-MEL-5 melanoma
SNB-19 CNS = tested on: SNB-19 CNS
CAKI-1 renal = tested on: CAKI-1 renal
SN12C renal = tested on: SN12C renal
HL-60(TB) leukemia = tested on: HL-60(TB) leukemia
CCRF-CEM leukemia = tested on: CCRF-CEM leukemia
OVCAR-8 ovarian = tested on: OVCAR-8 ovarian
UACC-257 melanoma = tested on: UACC-257 melanoma
SNB-75 CNS = tested on: SNB-75 CNS
HOP-92 NSCLC = tested on: HOP-92 NSCLC
HT29 colon = tested on: HT29 colon
OVCAR-3 ovarian = tested on: OVCAR-3 ovarian
M19-MEL melanoma = tested on: M19-MEL melanoma
SF-539 CNS = tested on: SF-539 CNS
RXF 393 renal = tested on: RXF 393 renal
HOP-18 NSCLC = tested on: HOP-18 NSCLC
NCI-H522 lung = tested on: NCI-H522 lung
LXFL 529 NSCLC = tested on: LXFL 529 NSCLC
EKVX NSCLC = tested on: EKVX NSCLC
UO-31 renal = tested on: UO-31 renal
786-0 renal = tested on: 786-0 renal
SF-268 CNS = tested on: SF-268 CNS
MOLT-4 leukemia = tested on: MOLT-4 leukemia
RPMI-8226 leukemia = tested on: RPMI-8226 leukemia

SMILES: Nc1nc[n+](Cc2ccccc2)c2ncn(Cc3ccccc3)c12
- TGI (HOP-62 NSCLC): > 100 µM
- TGI (HCT-116 colon): > 100 µM
- TGI (DMS 273 small cell lung): > 100 µM
- TGI (HCT-15 colon): > 100 µM
- TGI (U251 CNS): > 100 µM
- TGI (ACHN renal): > 100 µM
- TGI (SR leukemia): > 100 µM
- TGI (IGROV1 ovarian): > 100 µM
- TGI (UACC-62 melanoma): > 100 µM
- TGI (A498 renal): > 100 µM
- TGI (SK-MEL-28 melanoma): > 100 µM
- TGI (MALME-3M melanoma): > 100 µM
- TGI (NCI-H23 lung): > 100 µM
- TGI (DLD-1 colon): > 100 µM
- TGI (K-562 leukemia): > 100 µM
- TGI (NCI-H460 lung): > 100 µM
- TGI (SK-MEL-2 melanoma): > 100 µM
- TGI (A549 NSCLC): > 100 µM
- TGI (NCI-H226 lung): > 100 µM
- TGI (SNB-78 CNS): > 100 µM
- TGI (M14 melanoma): 86.3 µM
- TGI (OVCAR-5 ovarian): > 100 µM
- TGI (KM12 colon): > 100 µM
- TGI (SK-OV-3 ovarian): > 100 µM
- TGI (SW-620 colon): > 100 µM
- TGI (OVCAR-4 ovarian): > 100 µM
- TGI (LOX IMVI melanoma): > 100 µM
- TGI (SF-295 CNS): > 100 µM
- TGI (HCC-2998 colon): 60.4 µM
- TGI (COLO 205 colon): 82.8 µM
- TGI (KM20L2 colon): > 100 µM
- TGI (TK-10 renal): > 100 µM
- TGI (SK-MEL-5 melanoma): > 100 µM
- TGI (SNB-19 CNS): > 100 µM
- TGI (CAKI-1 renal): > 100 µM
- TGI (SN12C renal): > 100 µM
- TGI (HL-60(TB) leukemia): > 100 µM
- TGI (CCRF-CEM leukemia): > 100 µM
- TGI (OVCAR-8 ovarian): > 100 µM
- TGI (UACC-257 melanoma): > 100 µM
- TGI (SNB-75 CNS): > 100 µM
- TGI (HOP-92 NSCLC): 96.6 µM
- TGI (HT29 colon): > 100 µM
- TGI (OVCAR-3 ovarian): > 100 µM
- TGI (M19-MEL melanoma): > 100 µM
- TGI (SF-539 CNS): > 100 µM
- TGI (RXF 393 renal): 71 µM
- TGI (HOP-18 NSCLC): > 100 µM
- TGI (NCI-H522 lung): > 100 µM
- TGI (LXFL 529 NSCLC): > 100 µM
- TGI (EKVX NSCLC): > 100 µM
- TGI (UO-31 renal): > 100 µM
- TGI (786-0 renal): > 100 µM
- TGI (SF-268 CNS): > 100 µM

SMILES: CC[C@]1(O)CC2CN(CCCc3c([nH]c4ccccc34)[C@@](C(=O)OC)(c3cc4c(cc3OC)N(C)C3C45CCN4CC=C[C@](CC)(C45)C(OC(C)=O)[C@@]3(O)C(=O)OC)C2)C1 (some centres undefined)
- TGI (HOP-62 NSCLC): > 3.4 µM
- TGI (HCT-116 colon): > 10 µM
- TGI (DMS 273 small cell lung): > 10 µM
- TGI (HCT-15 colon): > 10 µM
- TGI (U251 CNS): > 10 µM
- TGI (ACHN renal): > 10 µM
- TGI (IGROV1 ovarian): > 10 µM
- TGI (UACC-62 melanoma): > 10 µM
- TGI (A498 renal): 4.54 µM
- TGI (SK-MEL-28 melanoma): > 10 µM
- TGI (MALME-3M melanoma): > 3.16 µM
- TGI (NCI-H23 lung): 3.77 µM
- TGI (DLD-1 colon): > 10 µM
- TGI (K-562 leukemia): > 10 µM
- TGI (NCI-H460 lung): > 10 µM
- TGI (SK-MEL-2 melanoma): > 8.05 µM
- TGI (A549 NSCLC): > 10 µM
- TGI (MOLT-4 leukemia): > 10 µM
- TGI (NCI-H226 lung): > 3.01 µM
- TGI (SNB-78 CNS): > 3.04 µM
- TGI (M14 melanoma): 4.01 µM
- TGI (OVCAR-5 ovarian): > 10 µM
- TGI (KM12 colon): > 10 µM
- TGI (SK-OV-3 ovarian): > 7.95 µM
- TGI (SW-620 colon): > 10 µM
- TGI (OVCAR-4 ovarian): > 10 µM
- TGI (LOX IMVI melanoma): > 10 µM
- TGI (SF-295 CNS): > 2.13 µM
- TGI (HCC-2998 colon): 8.2 µM
- TGI (COLO 205 colon): > 7.86 µM
- TGI (KM20L2 colon): 1.05 µM
- TGI (TK-10 renal): > 10 µM
- TGI (SK-MEL-5 melanoma): > 6.15 µM
- TGI (SNB-19 CNS): 9.83 µM
- TGI (CAKI-1 renal): > 10 µM
- TGI (SN12C renal): > 10 µM
- TGI (HL-60(TB) leukemia): > 5.65 µM
- TGI (CCRF-CEM leukemia): > 10 µM
- TGI (OVCAR-8 ovarian): > 10 µM
- TGI (UACC-257 melanoma): > 10 µM
- TGI (SNB-75 CNS): 5.7 µM
- TGI (HOP-92 NSCLC): > 10 µM
- TGI (HT29 colon): > 3.44 µM
- TGI (OVCAR-3 ovarian): > 2.12 µM
- TGI (M19-MEL melanoma): > 10 µM
- TGI (SF-539 CNS): 6.03 µM
- TGI (RXF 393 renal): 4.41 µM
- TGI (HOP-18 NSCLC): 0.73 µM
- TGI (NCI-H522 lung): 0.393 µM
- TGI (LXFL 529 NSCLC): > 10 µM
- TGI (EKVX NSCLC): > 8.04 µM
- TGI (UO-31 renal): > 10 µM
- TGI (RPMI-8226 leukemia): > 8.84 µM
- TGI (786-0 renal): > 10 µM
- TGI (SF-268 CNS): > 3.13 µM
